Results from US11860169B2, “Method of treating and prognosing scoliotic patient subgroups” (Chu Sainte-Justine, priority 2013, dated 2024).
“Also recorded” adds a separate entry of the source.

Legend:
[1] = system: Gi-mediated cell signaling; test: Gi-mediated cellular response measured by cellular impedance (CellKey system) in osteoblasts treated with OPN, HA or antibodies; format: cell-based, human; conditions: LPA stimulation
Protocol: Gi-mediated cellular response in the presence of increasing amounts of rOPN was measured by cellular impedance using the CellKey™ system (Akoume et al., 2010; and Akoume et al., 2013 (J. Vis. Exp.)) in functional groups FG1, FG2 and FG3;
Osteoblasts from healthy subjects and AIS patients of each endophenotype (FG1, FG2 and FG3) were treated with vehicle, OPN (500 ng/ml) or HA (10 μM). The Gi-mediated cellular response in the presence of increasing amounts of LPA was measured by cellular impedance using the CellKey™ system;
(§1) CD44 activity (A) or expression (B) was inhibited in osteoblasts from control, FG1, FG2 and FG3 patients and the effect on OPN-dependent inhibition of Gi-mediated cell signaling was monitored using the CellKey™ system following stimulation with LPA.
Antibodies against integrins β1, β3 and β5 reverse the effect of OPN on Gi-mediated response in FG2 and FG3 subjects only, while blockade of CD44 further potentiates the effect of OPN.
(§2) The variation in Gi-mediated cell signaling in response to OPN in each functional group (FG1, FG2 and FG3) was studied. FIGS. 20 and 21 show the response to OPN (increasing doses) on osteoblasts isolated from patients classified into functional groups FG1, FG2 and FG3. […] Furthermore, MC3T3-E1 cells were used to check the effect of the knockdown of OPN and its receptors. MC3T3-E1 osteoblasts cells were transiently transfected in serum-free medium, using Lipofectamine™ RNAiMAX reagent (Invitrogen) according to the manufacturers instructions and functional experiments were performed 48 h post transfection.

[2] = system: Gi-mediated cell signaling; test: Gi-mediated cellular response measured by cellular impedance (CellKey system) after siRNA knockdown in osteoblasts; format: cell-based; conditions: for Effect of OPN knock down on Gi-mediated transduction: 48 h post transfection; for Effect of siRNA on OPN-dependent change of Gi-mediated cell signaling: in presence of OPN
Protocol: Gi-mediated cellular response in the presence siRNAs against rOPN was measured by cellular impedance using the CellKey™ system (Akoume et al., 2010; and Akoume et al., 2013 (J. Vis. Exp.)) in functional groups FG1, FG2 and FG3;
as §1
SiRNAs against integrins β1, β3 and β5 reversed the effect of OPN on Gi-mediated response while blockade of CD44 further potentiated the effect of OPN.
as §2
MC3T3-E1 cells were also used to check the effect of the knockdown of OPN's receptors by RNAi. Experimental conditions were as described for Example 5. The sequence of RNA oligonucleotides used for the knockdowns are: integrin β1 (CCU MG UCA GCA GUA GGA ACA UUA U (SEQ ID NO: 15)), integrin β3 (CCUCCAGCUCAUUGUUGAUGCUUAU (SEQ ID NO: 16)); integrin β5 ([…], HSS-105572, Life technologies (SEQ ID NO: 17), […], HSS-105573, Life technologies (SEQ ID NO: 18); and […], HSS-179984, life technologies, (SEQ ID NO: 19)) and CD44 (GM CM GGA GUC GUC AGA MC UCC A (SEQ ID NO: 20)).

[3] = osteoblasts from FG1 AIS subjects, increasing rOPN, or OPN 500 ng/ml or HA 10 μM
[4] = osteoblasts from FG2 AIS subjects, increasing rOPN, or OPN 500 ng/ml or HA 10 μM
[5] = osteoblasts from FG3 AIS subjects, increasing rOPN, or OPN 500 ng/ml or HA 10 μM
[6] = osteoblasts from control (healthy) subjects, OPN 500 ng/ml or HA 10 μM
[7] = osteoblasts from control subjects

Substance | Effect on Gi-mediated cellular response [1, 3] | Effect on Gi-mediated cellular response [1, 4] | Effect on Gi-mediated cellular response [1, 5] | Effect on Gi-mediated cellular response [1, 6] | Effect of siRNA on OPN-dependent change of Gi-mediated cell signaling ([2]; osteoblasts from FG1 subjects) | Effect of siRNA on OPN-dependent change of Gi-mediated cell signaling ([2]; osteoblasts from FG2 subjects) | Effect of siRNA on OPN-dependent change of Gi-mediated cell signaling ([2]; osteoblasts from FG3 subjects) | Effect of siRNA on OPN-dependent change of Gi-mediated cell signaling [2, 7] | other results
Hyaluronic acid [HA] | increases the Gi-mediated cellular response | decreases the Gi-mediated response | decreases the Gi-mediated response | decreases the Gi-mediated response | – | – | – | – | –
OPN siRNA: siRNA for knock down of OPN expression: CCA CAG CCA CM GCA GUC CAG AUU A (CCACAGCCACAAGCAGUCCAGAUUA; listed as RNA, chemistry not fully specified) | – | – | – | – | – | – | – | – | Effect of OPN knock down on Gi-mediated transduction ([2]; FG1): tends to decrease the response; Effect of OPN knock down on Gi-mediated transduction ([2]; FG2): increases Gi-mediated transduction; Effect of OPN knock down on Gi-mediated transduction ([2]; FG3): increases Gi-mediated transduction
OPN: osteopontin, encoded by SPP1 (Gene ID 6696); recombinant rOPN added to osteoblasts | enhances Gi signaling | aggravates the impairment | aggravates the impairment | decreases the Gi-mediated response | – | – | – | – | –
siRNA against CD44: RNA oligonucleotide for CD44 knockdown: GM CM GGA GUC GUC AGA MC UCC A (GAACAAGGAGUCGUCAGAAACUCCA; listed as RNA, chemistry not fully specified) | – | – | – | – | further increased Gi-mediated cell signaling | further decreased Gi-mediated cell signaling; also recorded: further reduced Gi-mediated signaling | further decreased Gi-mediated cell signaling; also recorded: further reduced Gi-mediated signaling | further decreased Gi-mediated cell signaling; also recorded: further reduced Gi-mediated signaling | –
siRNA against integrin β1: RNA oligonucleotide for integrin β1 knockdown: CCU MG UCA GCA GUA GGA ACA UUA U (CCUAAGUCAGCAGUAGGAACAUUAU; listed as RNA, chemistry not fully specified) | – | – | – | – | reduced (blocked) the increase in Gi-mediated response induced by OPN | can be reversed | can be reversed | can be reversed | –
siRNA against integrin β3: RNA oligonucleotide for integrin β3 knockdown: CCUCCAGCUCAUUGUUGAUGCUUAU (CCUCCAGCUCAUUGUUGAUGCUUAU; listed as RNA, chemistry not fully specified) | – | – | – | – | reduced (blocked) the increase in Gi-mediated response induced by OPN | can be reversed | can be reversed | can be reversed | –
